{"source": "patent US8642548B2", "about": "(Mannkind Corporation, priority 2009, dated 2014)", "test": "Phase 1a trial of GLP-1/FDKP inhalation powder: insulin, glucose, gastric emptying", "format": "in vivo, human", "data": [{"smiles": "CC[C@H](C)[C@H](NC(=O)[C@H](Cc1ccccc1)NC(=O)[C@H](CCC(=O)O)NC(=O)[C@H](CCCCN)NC(=O)[C@H](C)NC(=O)[C@H](C)NC(=O)[C@H](CCC(N)=O)NC(=O)CNC(=O)[C@H](CCC(=O)O)NC(=O)[C@H](CC(C)C)NC(=O)[C@H](Cc1ccc(O)cc1)NC(=O)[C@H](CO)NC(=O)[C@H](CO)NC(=O)[C@@H](NC(=O)[C@H](CC(=O)O)NC(=O)[C@H](CO)NC(=O)[C@@H](NC(=O)[C@H](Cc1ccccc1)NC(=O)[C@@H](NC(=O)CNC(=O)[C@H](CCC(=O)O)NC(=O)[C@H](C)NC(=O)[C@@H](N)Cc1c[nH]cn1)[C@@H](C)O)[C@@H](C)O)C(C)C)C(=O)N[C@@H](C)C(=O)N[C@@H](Cc1c[nH]c2ccccc12)C(=O)N[C@@H](CC(C)C)C(=O)N[C@H](C(=O)N[C@@H](CCCCN)C(=O)NCC(=O)N[C@@H](CCCNC(=N)N)C(N)=O)C(C)C", "note": "[GLP-1, glucagon-like peptide 1]", "values": [{"measurement": "mean fasting plasma glucose", "setting": "1.5 mg GLP-1 inhaled, 20 min after dosing, from 85 mg/dL", "result": 70, "unit": "mg/dL"}, {"measurement": "inhibition of gastric emptying", "setting": "pulmonary administration, dry powder, data not shown", "result": "lack inhibition of gastric emptying"}]}]}
